What was measured:
[1] = system: C481S BTK; experiment: In vitro kinase activity assay, C481S BTK (Nanosyn); conditions: 2 h preincubation
[2] = system: Ramos cells; experiment: Metabolomic quantification of PROTAC cellular concentration; format: in vitro ADME, human; conditions: 2 hours; for Effective cellular concentration: 100 nM compound; for effective cellular concentration relative to IR-2 / effective cellular concentration relative to RC-2: 100 nM
Protocol: Raw data were analyzed using the MaxQuant software suite 1.6.0.16
(www.maxquant.org) with the Andromeda search engine2. The higher-energy collisional dissociation (HCD) MS/MS spe ctra were searched against an in silico tryptic digest of Homo sapiens proteins from the UniProt/Swiss-Prot sequence databas e (v. July 2019), including common contaminant proteins. All MS/MS spectra were searched with the following MaxQuant parameters: acetyl (protein N -terminus) and methionine oxidation as variable modifications; cysteine carbamidomethylation was set as fixed modification for all samples, exc ept for the SDT samples in which case carbamidomethylation was set as variable modification; max 2 missed cleavages; and precursors were initially matched to 4. 5 ppm tolerance and 20 ppm for fragment spectra. Peptide spectrum matches and proteins were automatically filtered to a 1% false discovery rate based on Andromeda score, pep tide length, and individual peptide mass errors. Processing was conducted without a match between runs.
Proteins were identified and quantified based on at least two unique peptides and based on the label -free quantification (LFQ) 3 values reported by Ma xQu ant. Every data set contained three sets of four replicates (one set for DMSO treated samples, one set for 50 nM and one set for 100 nM). Proteins were excluded from analysis if within all three sets, there were less than three samples with directly detect ed and quantified protein. After this filtering step, missing values were replaced from a normal distribution.
Sample preparation: 106 Ramos cells were treated in three replicates with 100 nM compound for 2 hours. Cells were then washed twice by centrifuge at 200 rcf, 4°C for 5 minutes, removing the supernatant and washed with ice cold PBS. Samples were then centrifuged at 200 rcf, 4°C for 5 minutes, then supernatant was removed and samples were frozen at -80°C. Samples were dispersed in 100 µl of PBS. From each sample, 20 µ l were mixed with 20 µl of 10% SDS in 50 mM ammonium bicarbonate, heated to 96 ° C for 5 minutes, and the protein concentration was measured by BCA ass ay. Another 75 µ l were mixed with 0.5 mL of 50% acetonitrile:water, sonicated 3 times 10 second s on ice, centrifuged for 10 minutes at 15000 rpm at 4°C, and the supernatant was transferred to a new tube and lyophilized.
The residue was dissolved in 25% acetonitrile in water in a volume calculated from the BCA assay to obtain a con centration equivalent to 1.09 µg / µl protein. The samples were centrifuged at 21,000 g for 5 min utes to remove insoluble material. Standard curves from 0.1-100 ng/mL for each compound were used for quantitation.
The LC–MS/MS instrument consi sted of an Acquit y I-class UPLC system (Waters) and Xevo TQ-XS triple quadrupole mass spectrometer (Waters) equipped with an electrospray ion source. Chromatographic separation was done on UPLC BEH C18 column (50mm × 2.1mm, 1.7-µm, Waters) using 50-100% gradient of 95%-aqueous acetonitrile with 0.1% formic acid in aqueous 0.1% formic acid during 2.5 minut e s, with a flow rate of 0. 3 mL min−1 and column temperature 30°C. Samples kept at 10°C were automatically injected in a volume of 3µl.
MS parameters (positive ion mode): capillary voltage - 2. 0kV, source temperature - […]
Targeting BTK in CLL cells
After signing an informed consent form approved by the Tel Aviv Medical Center IRB according to the Helsinki Accords, blood samples were collected from pat ients fulfilling the standard criteria for CLL. Peripheral blood mononuclear cells (PBMC) were isolated by Ficoll (Uppsala, Sweden) density-gradient centrifugation. Viable frozen cells were kept in FCS (Biological Industries, Beit-Haemek, Israel) containing 10% DMSO (Merck, Darmstadt, Germany) and stored in liquid nitrogen. Before use, frozen cells were thawed and cultured at 37°C, 5% CO 2, in RPMI medium supplemented with 10% FCS, penicillin, streptomycin, and L-glutamine (all from Biological Industries, Be it-Haemek, Israel.) […]

| SMILES | fold reduction in potency, C481S vs wild-type BTK [1] | Effective cellular concentration [2] | effective cellular concentration relative to IR-2 [2] | effective cellular concentration relative to RC-2 [2] |
| --- | --- | --- | --- | --- |
| Nc1ncnc2c1c(-c1ccc(Oc3ccccc3)cc1)nn2C1CCCN(C(=O)C=CCCCCOCCOCCOCCOCCOc2cccc3c2C(=O)N(C2CCC(=O)NC2=O)C3=O)C1 (stereo not drawn) [IR-2] | only slight sensitivity to the mutation | 4.1 ± 0.7 pg compound / µg total protein | – | – |
| CC(C)(C=C(C#N)C(=O)N1CCCC(n2nc(-c3ccc(Oc4ccccc4)cc3)c3c(N)ncnc32)C1)CCCOCCOCCOCCOCCOc1cccc2c1C(=O)N(C1CCC(=O)NC1=O)C2=O (stereo not drawn) [RC-3] | > 1000 fold | 10.7 ± 3.1 pg compound / µg total protein | ~2 times | ~10 times |
| N#CC(=CCCCCOCCOCCOCCOCCOc1cccc2c1C(=O)N(C1CCC(=O)NC1=O)C2=O)C(=O)N1CCCC(n2nc(-c3ccc(Oc4ccccc4)cc3)c3c(N)ncnc32)C1 (stereo not drawn) [RC-2] | 68 fold | 0.93 ± 0.06 pg compound / µg total protein | – | – |
| Nc1ncnc2c1c(-c1ccc(Oc3ccccc3)cc1)nn2C1CCCN(C(=O)CCCCCCOCCOCCOCCOCCOc2cccc3c2C(=O)N(C2CCC(=O)NC2=O)C3=O)C1 (stereo not drawn) [NC-1] | < 2 fold | 8.6 ± 2.6 pg compound / µg total protein | ~2 times | ~10 times |
